# Tested on: recombinant NL4-3 virus (Renilla luciferase in nef, Gag P373S)
# Test: HIV Cell Culture Assay (luciferase reporter virus in MT-2 cells)
# Format: cell-based
# Details: NL43
# Procedure: MT-2 cells and 293T cells were obtained from the NIH AIDS Research and Reference Reagent Program. MT-2 cells were propagated in RPMI 1640 media supplemented with 10% heat inactivated fetal bovine serum, […]. The 293T cells were propagated in DMEM media supplemented with 10% heat inactivated fetal bovine serum (FBS), 100 units/mL penicillin G and 100 μg/mL streptomycin. The proviral DNA clone of NL4-3 was obtained from the NIH AIDS Research and Reference Reagent Program. A recombinant NL4-3 virus, in which a section of the nef gene from NL4-3 was replaced with the Renilla luciferase gene, was used as a reference virus. In addition, residue Gag P373 was converted to P373S. Briefly, the recombinant virus was prepared by transfection of the altered proviral clone of NL4-3. Transfections were performed in 293T cells using LipofectAMINE PLUS from Invitrogen (Carlsbad, Calif.), according to manufacturer's instruction. The virus was titered in MT-2 cells using luciferase enzyme activity as a marker. Luciferase was quantitated using the Dual Luciferase kit from Promega (Madison, Wis.), with modifications to the manufacturer's protocol. The diluted Passive Lysis solution was pre-mixed with the re-suspended Luciferase Assay Reagent and the re-suspended Stop & Glo Substrate (2:1:1 ratio). Fifty (50) μL of the mixture was added to each aspirated well on assay plates and luciferase activity was measured immediately on a Wallac TriLux (Perkin-Elmer). Antiviral activities of inhibitors toward the recombinant virus were quantified by measuring luciferase activity in cells infected for 4-5 days with NLRluc recombinants in the presence serial dilutions of the inhibitor.
row,SMILES,EC50 [µM]
1,"CC(C)C1=C2[C@H]3CC[C@@H]4[C@@]5(C)CC=C(C6=CC[C@](CF)(C(=O)O)CC6)C(C)(C)[C@@H]5CC[C@@]4(C)[C@]3(C)CC[C@@]2(CNCCCN2CCS(=O)(=O)CC2)C=C1c1ccccc1 [Example 16, (S)-4-((3aR,5aR,5bR,7aR,11aS,11bR,13aS)-3a-(((3-(1,1-dioxidothiomorpholino)propyl)amino)methyl)-1-isopropyl-5a,5b,8,8,11a-pentamethyl-2-phenyl-4,5,5a,5b,6,7,7a,8,11,11a,11b,12,13,13a-tetradecahydro-3aH-cyclopenta[a]chrysen-9-yl)-1-(fluoromethyl)cyclohex-3-enecarboxylic acid]",0.00264
2,"CC(C)C1=C2[C@H]3CC[C@@H]4[C@@]5(C)CC=C(C6=CC[C@](CF)(C(=O)O)CC6)C(C)(C)[C@@H]5CC[C@@]4(C)[C@]3(C)CC[C@@]2(NCCN2CCS(=O)(=O)CC2)C=C1c1ccccc1 [Example 17, (S)-4-((3aR,5aR,5bR,7aR,11aS,11bR,13aS)-3a-((2-(1,1-dioxidothiomorpholino)ethyl)amino)-1-isopropyl-5a,5b,8,8,11a-pentamethyl-2-phenyl-4,5,5a,5b,6,7,7a,8,11,11a,11b,12,13,13a-tetradecahydro-3aH-cyclopenta[a]chrysen-9-yl)-1-(fluoromethyl)cyclohex-3-enecarboxylic acid]",0.109

# Reference: patent publication US9969767B2, “Oxolupene derivatives” (priority 2014, dated 2018)
